Converted amounts (≈) assume the structure as drawn.

The values below come from ChEMBL document CHEMBL5346934 (J Med Chem, 2023).

The subject of data set [1] is Cowpox virus. The experiment in a line: Antiviral activity against Cowpox virus infected in Vero cells measured after 4 days by colorimetric assay. The format is functional, organism-based. The conditions noted are these: 96 h.
Data set [2] relates to Vaccinia virus. The experiment in a line: Antiviral activity against Vaccinia virus infected in African green monkey BSC-1 cells incubated for 24 hrs by microscopic analysis. The class given is functional. The conditions noted are these: Orthopoxvirus vaccinia.
Data set [3] deals with Vaccinia virus. The experiment in a line: Antiviral activity against Vaccinia virus infected in African green monkey Vero cells incubated for 24 hrs. The conditions noted are these: Orthopoxvirus vaccinia. The class given is functional, organism-based.
For data set [4], the system named is Vaccinia virus. The experiment in a line: Antiviral activity against Vaccinia virus infected in African green monkey Vero cells assessed as reduction virus induced cytopathic effect incubated for 24 hrs by MTT assay. The conditions noted are these: Orthopoxvirus vaccinia. The format is functional, organism-based. Background: Damage to the host cells serves as the signal in cytopathic effect assays.

Data set [5] concerns Vaccinia virus. The experiment in a line: Antiviral activity against Vaccinia virus Copenhagen infected in African green monkey Vero cells. The conditions noted are these: Orthopoxvirus vaccinia. The format is functional, organism-based.
For data set [6], the system named is Cowpox virus. The experiment in a line: Antiviral activity against Cowpox virus Grishak infected in African green monkey Vero cells. The format is functional, organism-based.
The nature of data set [7]: Inhibition of D4 receptor (unknown origin). The arrangement: species or system Homo sapiens.
Data set [8] concerns Vaccinia virus. The experiment in a line: Antiviral activity against Vaccinia virus Copenhagen infected in human HFF cells assessed as assessed as reduction in virus-induced cytopathic effect incubated for 7 days by microscopic analysis. The format is functional, organism-based. The conditions noted are these: Orthopoxvirus vaccinia, 168 h.
The test system of data set [9] is Vaccinia virus. The experiment in a line: Antiviral activity against Vaccinia virus Copenhagen infected in HFF cells measured after 3 days by colorimetric assay. The class given is functional, organism-based. The conditions noted are these: Orthopoxvirus vaccinia, 72 h.
Data set [10] concerns Vaccinia virus. The experiment in a line: Antiviral activity against wild type Vaccinia virus infected in African monkey Vero cells measured after 5 days by MTT assay. The conditions noted are these: Orthopoxvirus vaccinia, 120 h. The class given is functional, organism-based.
The subject of data set [11] is Cowpox virus. The experiment in a line: Antiviral activity against Cowpox virus Brighton infected in human HFF cells assessed as assessed as reduction in virus-induced cytopathic effect incubated for 7 days by microscopic analysis. The format is functional, organism-based. The conditions noted are these: 168 h.
The test system of data set [12] is Vaccinia virus. The experiment in a line: Antiviral activity against Vaccinia virus IHD-J infected in BSC40 cells assessed as reduction in plaque formation measured after 72 hrs by crystal violet staining based analysis. The class given is functional, organism-based. The conditions noted are these: Orthopoxvirus vaccinia, BSC-40, 72 h.
The test system of data set [13] is Vaccinia virus. The experiment in a line: Antiviral activity against Vaccinia virus infected in human HFF cells. The format is functional, organism-based. The conditions noted are these: Orthopoxvirus vaccinia.
In another data set the test system is Human alphaherpesvirus 2. The experiment in a line: Antiviral activity against Herpes simplex virus 2. The format is functional, organism-based.
For the next data set, the system named is Variola virus. The experiment in a line: Antiviral activity against Variola virus 7124 infected in monkey LLC-MK2 cells. The class given is functional, organism-based. The conditions noted are these: Variola virus, 7124, LLC-MK2.
The subject of data set [14] is Vaccinia virus. The experiment in a line: Antiviral activity against Vaccinia virus Copenhagen infected in human HFF cells assessed as reduction in viral replication measured after 3 days. The class given is functional, organism-based. The conditions noted are these: Orthopoxvirus vaccinia, 72 h.
For data set [15], the system named is Vaccinia virus. The experiment in a line: Antiviral activity against Cowpox virus Brighton infected in human HFF cells assessed as reduction in viral replication measured after 3 days. The class given is functional, organism-based. The conditions noted are these: Orthopoxvirus vaccinia, 72 h.
Data set [16] in a line: Cytotoxicity against African green monkey VERO cells assessed as inhibition of cell growth incubated for 24 hrs by MTT assay. The class given is toxicity, cell-based. The conditions noted are these: chlorocebus sabaeus. A general note: Tetrazolium assays rely on reduction of a dye to a coloured formazan, in cell work by metabolically active cells.
Data set [17] relates to Vaccinia virus. The experiment in a line: Antiviral activity against Vaccinia virus infected in African green monkey Vero cells. The format is functional, organism-based. The conditions noted are these: Orthopoxvirus vaccinia.
A further data set concerns Ectromelia virus. The experiment in a line: Antiviral activity against ectromelia virus K-1 infected in Vero cells measured after 4 days by colorimetric assay. The conditions noted are these: K-1, Vero, 96 h. The class given is functional, organism-based.
The next data set has as its system Monkeypox virus. The experiment in a line: Antiviral activity against Monkeypox virus V79-1-005 infected in Vero cells measured after 4 days by colorimetric assay. The conditions noted are these: V79-1-005, Vero, 96 h. The format is functional, organism-based.
For data set [18], the system named is Vaccinia virus. The experiment in a line: Antiviral activity against Vaccinia virus infected in Vero cells measured after 4 days by colorimetric assay. The format is functional, organism-based. The conditions noted are these: Orthopoxvirus vaccinia, 96 h.
In data set [19] the test system is Cowpox virus. The experiment in a line: Antiviral activity against Cowpox virus Brighton infected in Vero cells measured after 4 days by colorimetric assay. The class given is functional, organism-based. The conditions noted are these: 96 h.
Data set [20] concerns Vaccinia virus. The experiment in a line: Antiviral activity against Vaccinia virus Lister infected in human HEL cells assessed as virus-induced cytopathic effect measured after 5 days by microscopic analysis. The conditions noted are these: Orthopoxvirus vaccinia, 120 h. The class given is functional, organism-based.
The subject of a further data set is Camelpox virus. The experiment in a line: Antiviral activity against Camelpox virus infected in human HEL cells assessed as reduction in virus-induced cytopathic effect measured after 5 days by microscopic analysis. The format is functional, organism-based. The conditions noted are these: 120 h.

As for `Nc1ncnc2c1ncn2COC(CO)CO`, the EC50 (in general, the concentration giving half of the maximal effect) with Cowpox virus [1] is 3.5 µM.
As for `CCCCCCCCNCCC[C@@H](C)[C@H]1CC[C@H]2[C@@H]3[C@H](OCCCN)C[C@@H]4C[C@H](OCCCN)CC[C@]4(C)[C@H]3C[C@H](OCCCN)[C@]12C`, the EC90 (in general, the concentration needed for an effect of 90%) in the data set on Vaccinia virus [2] came out at 9.15 µM.
`CCNC(=O)OCC12CC3CC(CC(C3)C1)C2` yielded an EC50 with Vaccinia virus [3] of 14.8 µM.
For the compound `CCC(C(=O)Nc1sc(C(N)=O)c(C)c1C(=O)OC)c1ccccc1` (configuration not stated), the EC50 in the data set on Vaccinia virus [4] was found to be 19.7 µM; in the data set with Vaccinia virus [5], 18.7 µM; in the data set with Cowpox virus [6] it was 8.4 µM. For the same compound, the IC50 (in general, the concentration that gives 50% inhibition) in data set [7] was found to be 13.4 µM.
Regarding `Oc1ccc(NCc2ccccc2OCc2ccccc2)cc1`, in the data set with Vaccinia virus [8], the EC50 was found to be 7.1 µM.
For the compound `Fc1ccc(Nc2c(-c3ccccn3)nc3ccc(Cl)cn23)cc1`, in the data set with Vaccinia virus [8], the concentration for a half-maximal effect (EC50) came out at 6.5 µM.
On to `O=c1[nH]c(=O)n([C@H]2C[C@H](O)[C@@H](CO)S2)cc1I`, for which the EC50 in the data set with Vaccinia virus [9] is 500 nM; in the data set on Vaccinia virus [10], 50 nM.
As to `O=S(=O)(c1ccc(C2=CSC(Nc3ccc(F)cc3)N2CCCCCCO)cc1)N1CCCC1` (configuration not stated), the EC50 with Vaccinia virus [8] is 4.6 µM; with Cowpox virus [11], 4.5 µM.
With `O=C1c2ccccc2-c2onc3c2C1C(NC1CCCCC1)C=C3NCCO` (configuration not stated), the EC50 in the data set with Vaccinia virus [8] was determined as 8.4 µM.
For the compound `CCC(=O)N1CC(=O)Nc2ccc(Br)cc2C1c1ccccc1` (configuration not stated), the EC50 with Vaccinia virus [12] turned out to be 3000 nM.
As for `NC(CSC1(c2ccc(Cl)cc2)c2ccccc2-c2ccccc21)C(=O)O` (configuration not stated), the values for the IC50 with Vaccinia virus [13] and in the data set on Human alphaherpesvirus 2 were 47.5 µM and 34.8 µM, respectively.
Consider `Cc1ccc(C2Nc3ccccc3C(=O)N2c2ccccc2)s1` (configuration not stated), for which the EC50 in the data set on Vaccinia virus [12] was 2200 nM.
In the data set with Variola virus, `Nc1nc(=O)n([C@@H]2C=C(CO)[C@@H](O)[C@H]2O)cc1F` returned an EC50 of 510 nM.
`NC(=S)N/N=C1\C(=O)Nc2ccccc21`: the EC50 in the data set with Vaccinia virus [14] worked out at 14 µM; with Vaccinia virus [15], 60 µM.
For the compound `Nc1cc(OC[C@H](CO)OCP(=O)(O)O)nc(N)n1`, a half-maximal effect with Cowpox virus [1] (EC50) was put at 46.2 µM.
For `CC1(C)[C@@H]2CC[C@@]1(C)/C(=N/Nc1nc(-c3ccc(Br)cc3)cs1)C2`, in [16], the CC50 (usually the concentration giving 50% cytotoxicity) at 24 h stood at 77.1 µM.
As for `Cc1nn(C)c(C)c1CCOc1c(-c2ccc3c(c2)c(CN(C)C)nn3C)ccc(F)c1F`, in the data set with Vaccinia virus [12], the EC50 stood at 130 nM.
For `CC1(C)[C@H]2CC[C@]1(C)[C@H](OC(=O)CCCN1CCOCC1)C2`, the IC50 in the data set on Vaccinia virus [17] came to 7.95 µM.
In the case of `CC1(C)[C@@H]2CC[C@@]1(C)[C@H](NC(=O)CCN1CCOCC1)C2`, in the data set with Vaccinia virus [17], the IC50 worked out at 7.47 µM.
Turning to `O=C(NNC(=O)C1C2C=CC(C3CC23)C1C(=O)O)c1ccc(C(F)(F)F)cc1` (configuration not stated), the EC50 is 0.011 µg/mL (≈ 0.0279 µM) with Ectromelia virus, 0.013 µg/mL (≈ 0.033 µM) in the data set with Monkeypox virus and 1 ng/mL (≈ 0.00254 µM) with Vaccinia virus [18].
Compound `CCc1ccc(S(=O)(=O)c2ccc(Cl)cc2)cc1` gave an EC50 in the data set on Vaccinia virus [3] of 18.6 µM.
As to `Nc1ccn(C[C@@H]2COP(=O)(O)CO2)c(=O)n1`, the EC50 was found to be 50.6 µM with Vaccinia virus [4] and 48.3 µM in the data set with Cowpox virus [1].
As to `Cc1cn([C@@]2(C)C[C@H](O)[C@@H](CO)S2)c(=O)[nH]c1=O`, the EC50 was found to be 480 nM in the data set on Vaccinia virus [9]; 800 nM in the data set on Vaccinia virus [10]; 480 nM in the data set with Cowpox virus [19]; 410 nM with Vaccinia virus [20]; 790 nM in the data set with Camelpox virus.
